Laboratory results reported in US9895390B2, “Methods and assays for combination treatment of cancer” (CHILDREN'S MEDICAL CENTER CORPORATION, priority 2012, dated 2018).

Key:
EZH2 and H3K27me3 = assay: Western Blot for EZH2 and H3K27me3 on whole cell extracts; format: cell-based, human; conditions: 1 μM DZNep, 4 days
Experimental: For Western blotting, 25 μg of protein extract per sample was denatured with heat and reducing agents, separated on a 4-12% acrylimide gel and transferred to nitrocellulose. Antibodies used for Western blotting were: EZH2 (Cell Signalling), β-actin (AbCAM) and H3K27me3 (Upstate).
Whole cell extracts were made in RIPA buffer (0.5% Deoxycholate, 1% IGEPAL-CA630, 0.1% sodium dodecyl sulfate, 150 mM NaCL, 50 mM Tris-8.1), lysates were cleared by centrifugation, and protein concentrations were quantified with the Pierce BCA Protein Assay Kit (Thermo). For Western blotting, 25 μg of protein extract per sample was denatured with heat and reducing agents, separated on a 4-12% acrylimide gel (BioRad) and transferred to nitrocellulose (GE Healthcare). Antibodies used for Western blotting were: EZH2 (clone D2C9; Cell Signaling; 1:200), Histone H3 (polyclonal; AbCAM ab1791; 1:2000) and H3K27me3 (polyclonal; Millipore 07-449; 1:1000) all incubated overnight at 4° C. Secondary antibody, anti-rabbit-HRP (Santa Cruz sc-2313; 1:5,000), was incubated for 1 hour at room temperature. After washing, chemi-luminescence was visualized with Western Lightning Plus-ECL (PerkinElmer) and exposure onto KODAK BioMax XAR™ film.

human NSCLC lines = assay: Cell line growth, 4 days (Cell Titer Glo); format: cell-based; conditions: 1 μM DZNep
Experimental: (§1) Cell lines were dissociated, counted and plated at 5000 cells per well in flat bottom opaque tissue culture treated 96 well plates (CytoOne). Edge wells were filled with PBS. The following day, 2× drug diluted in media was added to each well such that the well then contained 100 ul media with 1× drug concentration. After 4 days, Cell Titer Glo™ (Promega) was added and luminescence was read on a BioTec plate reader to determine relative cell number in each well. Data were averaged for triplicate or quadruplicate technical replicates, normalized to the untreated wells and input into GraphPad Prism software to extrapolate IC50.
as §1, with “concentration at the following doses: etoposide; 0, 0.1, 1, 3, 5, 7, 10, 50, 100, 500 μM, cisplatin; 0, 0.1, 1, 5, 10, 30, 70, 100, 500 μM, or doxorubicin; 0, 0.01, 0.1, 0.5, 1, 3, 5, 7, 10, 50 μM.” for “concentration.”, “CELLTITER-GLO™” for “Cell Titer Glo™”, “replicates and” for “replicates,”, “wells. […]” for “wells and input into GraphPad Prism software to extrapolate IC50.”

H23 = assay: Etoposide dose response curves in the presence of 5 μM cisplatin; format: cell-based, human; conditions: H23 (protected), combination with DZNep
Experimental: (§2) FIG. 25A is a Waterfall plot of cell line growth in 1 μM DZNep for 4 days compared to untreated cells, n=3-5 biological replicates, * indicates p<0.04, ** p<0.007. […] FIG. 25C is a pair of representative etoposide dose response curves performed in the presence of 5 μM cisplatin, the sensitized line PC9 (4.2-fold decrease, p<0.0001) and the protected line H23 (3.4-fold increase, p<0.0001) are shown.
as §1, with “concentration at the following doses: etoposide; 0, 0.1, 1, 3, 5, 7, 10, 50, 100, 500 μM, cisplatin; 0, 0.1, 1, 5, 10, 30, 70, 100, 500 μM, or doxorubicin; 0, 0.01, 0.1, 0.5, 1, 3, 5, 7, 10, 50 μM.” for “concentration.”, “CELLTITER-GLO™” for “Cell Titer Glo™”, “replicates and” for “replicates,”, “wells. Results from three or four independent biological replicate experiments were” for “wells and”, “GRAPHPAD PRISM™” for “GraphPad Prism”, “IC50 and s.e.m. of IC50 for a given cell line.” for “IC50.”

PC9 = assay: as above; format: cell-based, human; conditions: PC9 (sensitized), combination with DZNep
Experimental: as §2
as §1, with “concentration at the following doses: etoposide; 0, 0.1, 1, 3, 5, 7, 10, 50, 100, 500 μM, cisplatin; 0, 0.1, 1, 5, 10, 30, 70, 100, 500 μM, or doxorubicin; 0, 0.01, 0.1, 0.5, 1, 3, 5, 7, 10, 50 μM.” for “concentration.”, “CELLTITER-GLO™” for “Cell Titer Glo™”, “replicates and” for “replicates,”, “wells. Results from three or four independent biological replicate experiments were” for “wells and”, “GRAPHPAD PRISM™” for “GraphPad Prism”, “IC50 and s.e.m. of IC50 for a given cell line.” for “IC50.”

[1] = tested on: sensitized and protected NSCLC cell lines; assay: 7AAD cell cycle flow cytometry; format: cell-based, human
Experimental: Cell lines were plated at 1.5×10^6 cells per 10 cm plate and treated with drug for 4 days. Cells were then dissociated, fixed with 100% ice cold Ethanol for at least 2 hours, incubated for 30 minutes with 1 mg/mL RNase A and resuspended in 20 μg/mL 7AAD. 30,000 events were collected on the BD Facscalibur™ and analyzed with the ModFit LT™ software. In cases where etoposide treated cells had such abnormal ploidy that ModFit LT™ was unable to correctly model the cell cycle, the data was analyzed manually on FlowJo™ software by setting the gates on the etoposide sample and copying them to the etoposide+DZNep and etoposide shEZH2 samples.
For 7AAD-cell cycle analysis, cell lines were plated at 1.5×10^6 cells per 10 cm plate and treated with drug for 4 days. Cells were then dissociated, fixed with 100% ice cold Ethanol for at least 2 hours, incubated for 30 minutes with 1 mg/mL DNase-free RNase A (Thermo) and resuspended in 20 μg/mL 7-Aminoactinomycin D (7AAD; Invitrogen). 30,000 events were collected on the BD FORTESSA™ and analyzed with the MODFIT LT™ software. Results from three to four independent biological replicate experiments were averaged for each cell line.

[2] = tested on: BRG1 mutant and BRG1 wild-type cell lines; assay: Anaphase bridge analysis; format: cell-based, human
Experimental: To quantify anaphase bridges, cells were grown on 4-well cultures slides (Lab Tek II). Adherent cells were fixed with 4% paraformaldehyde for 20 min, washed and stained with Vectashield™ with 4′,6-diamidino-2-phenylindole (DAPI; Vector Labs). Images were taken of each anaphase structure, and the number of anaphases with bridges over the total number of anaphases (between 11 and 34 total anaphases per well of a 4-well chamber slide) was recorded for each of three or more independent biological replicate experiments.

[3] = tested on: p57, p21, p27, Brg1 and EGFR expression; assay: Quantitative RT-PCR in treated cell lines; format: cell-based, human; conditions: Sw1573, Calu6, H23, H460 and PC9; 1 μM DZNep, 4 days
Experimental: RNA from treated cell lines was extracted from using Trizol. Equal amounts of RNA were incubated with DNAse I before cDNA was made using the SuperScript III™ kit (Invitrogen). Relative gene expression was assayed with Sybr green on the StepOnePlus™ Real-Time PCR System (Applied Biosystems). Relative expression was calculated by Gene of Interest (Ctreference-Ctexprimental)-CYPA(Ctreference-Ctexperimental) and graphed on the log 2 scale. For all experiments, the reference sample was a matched untreated or control transduced cell line. Primer sequences:
RNA from treated cell lines was extracted using Absolutely RNA™ kits (Agilent) and cDNA was made using the SuperScript III™ kit (Invitrogen). Relative gene expression was assayed with Sybr green on the StepOnePlus™ Real-Time PCR System (Applied Biosystems). Relative expression was calculated by Gene of Interest(Ctreference-Ctexperimental)-CYPA(Ctreference-Cteexperimental) and graphed on the log 2 scale. For all experiments, the reference sample was a matched untreated or control transduced cell line.

increase in etoposide IC50 (H23): 3.4 fold
SMILES: Nc1nccc2c1ncn2[C@@H]1C=C(CO)[C@@H](O)[C@H]1O [DZNep, 3-Deazaneplanocin A]
EZH2 protein abundance and H3K27me3 catalytic mark (EZH2 and H3K27me3): effectively reduced | average reduction in growth of the cell lines (human NSCLC lines; 4-day time point): 20% | cell lines showing a significant reduction in growth (human NSCLC lines; 4-day time-point, panel of 26 lines): 11 of 26 | decrease in etoposide IC50 (PC9): 4.2 fold | average fewer cells in S phase vs etoposide alone ([1]; protected cell lines, 10 μM etoposide + 1 μM DZNep, 4 days): 10% | average fewer cells in S phase vs etoposide alone ([1]; protected lines, 5 μM etoposide, DZNep 1 μM or shEZH2, 4 days): 14% | average more cells in S phase in response to DZNep ([1]; sensitized cell lines, 10 μM etoposide + 1 μM DZNep, 4 days): 20% | average more cells in S phase ([1]; sensitized lines, 5 μM etoposide, DZNep 1 μM or shEZH2, 4 days): 14% | anaphase bridging when challenged with DZNep ([2]; BRG1 mutant cell lines): increased anaphase bridging | anaphase bridging when challenged with DZNep ([2]; BRG1 wild-type lines): significant decrease | anaphase bridging (TopoII dysfunction) in response to DZNep ([2]; HCC15 control line): increase in TopoII dysfunction | BRG1 transcript [3]: reproducibly increased
